Assay: recombinant UMI read abundance after kanamycin selection (control-corrected) (log10(CPM+1)); higher = more efficient recombination; extreme values may be limits of the assay; sequences stand for … in AGTGCAGAGAAAATCGGCCAGTTTTCTCTGCCTGCAGTCCGCATGCCGTGGGACCCCTTGGGTTCTAACCTGTTGCCTAGATTTATGCAGCGGACTGCCTTTCTCCCAAAGTGATAAACCGG…AGGTTGGTTTCACT; site = the 11-nt donor
How it was run: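 Under IPTG (0.07 mM) plus kanamycin, or without selection, Escherichia coli carrying a UMI-tagged donor and donor-binding-loop pair library and a target plasmid for the IS621 bridge recombinase were plated in two replicates. Recombinant UMIs were PCR-amplified across the donor–target junction and sequenced. Counts were converted to CPM, averaged over replicates, scaled by control-derived factors and reported as log10(CPM+1).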
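Note: IS621 bridge recombinase in Escherichia coli cells against a fixed T5 target plasmid.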

Q: Which “recombinant UMI read abundance (log10)” value does the source give for “CTTCTCTCATGGACCGGTTTTCCCGGTAATCCGTATTTGGA (site CTTCTCTCTTC)” here?
A: 1.35

Q: For “CTAGTCGCATGGACCGGTTTTCCCGGTAATCCGTATTTGCG (site TTAGTCGCTCG)”, which “recombinant UMI read abundance (log10)” value is on record?
A: 0.0191

Q: With “TAGCTAGCATGGACCGGTTTTCCCGGTAATCCGTATTTGGA (site TAGCTAGCTTT)” as the sequence, how does the “recombinant UMI read abundance (log10)” value read?
A: 0.866

Q: With “CTGTTACCATGGACCGGTTTTCCCGGTAATCCGTATTTGCT (site CTGATACCTAG)” as the sequence, how does the “recombinant UMI read abundance (log10)” value read?
A: 0

Q: With “AGCCTGTCATGGACCGGTTTTCCCGGTAATCCGTATTTGAC (site AGCCTTTCTGT)” as the sequence, how does the “recombinant UMI read abundance (log10)” value read?
A: 0

Q: With “CCGGGTCCATGGACCGGTTTTCCCGGTAATCCGTATTTGCA (site CCTGGTCCTTG)” as the sequence, how does the “recombinant UMI read abundance (log10)” value read?
A: 0.0157

Q: With “AAGCCCGCATGGACCGGTTTTCCCGGTAATCCGTATTTGGG (site AAGCTCGCTCC)” as the sequence, how does the “recombinant UMI read abundance (log10)” value read?
A: 0.0406

Q: Which “recombinant UMI read abundance (log10)” value does the source give for “CAGGGCCCATGGACCGGTTTTCCCGGTAATCCGTATTTGTT (site CACGGCCCTAA)” here?
A: 0.025

Q: Which “recombinant UMI read abundance (log10)” value does the source give for “CTACTATCATGGACCGGTTTTCCCGGTAATCCGTATTTGGA (site CTACTACCTTC)” here?
A: 0.00618

Q: Which “recombinant UMI read abundance (log10)” value does the source give for “CAATGAGCATGGACCGGTTTTCCCGGTAATCCGTATTTGGG (site CAATGAGCTCC)” here?
A: 0.779

Q: With “TTTGCGGCATGGACCGGTTTTCCCGGTAATCCGTATTTGCT (site GTTGCGGCTAG)” as the sequence, how does the “recombinant UMI read abundance (log10)” value read?
A: 0.00615

Q: Which “recombinant UMI read abundance (log10)” value does the source give for “TCGGTATCATGGACCGGTTTTCCCGGTAATCCGTATTTGCA (site ACAGTATCTTG)” here?
A: 1.54

Q: For “ACAGGTGCATGGACCGGTTTTCCCGGTAATCCGTATTTGAT (site GCAGGTGCTAT)”, which “recombinant UMI read abundance (log10)” value is on record?
A: 0.572

Q: For “CACTAGCCATGGACCGGTTTTCCCGGTAATCCGTATTTGCC (site CACTAGCCTGG)”, which “recombinant UMI read abundance (log10)” value is on record?
A: 0.665

Q: With “TGAGGACCATGGACCGGTTTTCCCGGTAATCCGTATTTGGG (site CGAGGACCTCC)” as the sequence, how does the “recombinant UMI read abundance (log10)” value read?
A: 0.00688

Q: With “ATGTAGGCATGGACCGGTTTTCCCGGTAATCCGTATTTGCC (site ATGTAGGCTGC)” as the sequence, how does the “recombinant UMI read abundance (log10)” value read?
A: 0

Q: With “GTTCATGCATGGACCGGTTTTCCCGGTAATCCGTATTTGGT (site GTCCATGCTAC)” as the sequence, how does the “recombinant UMI read abundance (log10)” value read?
A: 0.258

Q: With “CCGTTAGCATGGACCGGTTTTCCCGGTAATCCGTATTTGTT (site CCGTTAGCTCA)” as the sequence, how does the “recombinant UMI read abundance (log10)” value read?
A: 0.00936

Q: With “ACTAGAACATGGACCGGTTTTCCCGGTAATCCGTATTTGTG (site ACTAGAACTCC)” as the sequence, how does the “recombinant UMI read abundance (log10)” value read?
A: 0.0298

Q: Which “recombinant UMI read abundance (log10)” value does the source give for “CCGTCCCCATGGACCGGTTTTCCCGGTAATCCGTATTTGCT (site CCGTCCCCTAG)” here?
A: 0.00559

Q: Which “recombinant UMI read abundance (log10)” value does the source give for “AGGAACACATGGACCGGTTTTCCCGGTAATCCGTATTTGCA (site AGGAAGACTTG)” here?
A: 0

Q: With “GACAAACCATGGACCGGTTTTCCCGGTAATCCGTATTTGCT (site GACAAACCTAG)” as the sequence, how does the “recombinant UMI read abundance (log10)” value read?
A: 0

Q: Which “recombinant UMI read abundance (log10)” value does the source give for “GGAGTGGCATGGACCGGTTTTCCCGGTAATCCGTATTTGGT (site GGAGTGTCTAC)” here?
A: 1.1

Q: For “GGCTGACCATGGACCGGTTTTCCCGGTAATCCGTATTTGAA (site GGCTGACCTTT)”, which “recombinant UMI read abundance (log10)” value is on record?
A: 0.00353

Q: With “CCGTTAGCATGGACCGGTTTTCCCGGTAATCCGTATTTGTA (site CCGTTAGCTCA)” as the sequence, how does the “recombinant UMI read abundance (log10)” value read?
A: 0.00671

Q: For “CACGTCCCATGGACCGGTTTTCCCGGTAATCCGTATTTGTT (site CACGTCCCTAA)”, which “recombinant UMI read abundance (log10)” value is on record?
A: 0.326

Q: With “TATCGTCCATGGACCGGTTTTCCCGGTAATCCGTATTTGCG (site TATCGTCCTCG)” as the sequence, how does the “recombinant UMI read abundance (log10)” value read?
A: 0.0127

Q: For “TGGCCGGCATGGACCGGTTTTCCCGGTAATCCGTATTTGGA (site TGGCCGGCTAC)”, which “recombinant UMI read abundance (log10)” value is on record?
A: 0.0385

Q: Which “recombinant UMI read abundance (log10)” value does the source give for “CCGTTAACATGGACCGGTTTTCCCGGTAATCCGTATTTGCT (site CCGTTTACTAG)” here?
A: 0

Q: For “CTCCTCTCATGGACCGGTTTTCCCGGTAATCCGTATTTGTA (site CTCCTCTCTTA)”, which “recombinant UMI read abundance (log10)” value is on record?
A: 2.45

Q: Which “recombinant UMI read abundance (log10)” value does the source give for “CCTAAAGCATGGACCGGTTTTCCCGGTAATCCGTATTTGAT (site CCTAAAGCTAG)” here?
A: 0

Q: For “CCCCACACATGGACCGGTTTTCCCGGTAATCCGTATTTGTT (site CCCCACACTAA)”, which “recombinant UMI read abundance (log10)” value is on record?
A: 0.634

Reference: the supplement of paper PMC11208160
